What follows are cell lines tested with Cn1c(=O)n(-c2ccc(C(C)(C)C#N)cc2)c2c3cc(-c4cnc5ccccc5c4)ccc3ncc21 [Dactolisib] + C[C@@H](Oc1cc(-c2cnn(C3CCNCC3)c2)cnc1N)c1c(Cl)ccc(F)c1Cl [Crizotinib] (partner 1 µM) (assay: relative viability (nuclei count vs DMSO), 5 days (fraction); higher = more cells survive). Details: first compound 0.002 µM.
In short: (§1)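 Lung cancer cell lines were seeded in 1536-well plates and dosed by pin tool the next day, with either a single drug or a fixed anchor-drug dose combined with five library-drug doses (not always all listed) spaced in √10 steps. Five days later, one step fixed the cells and stained their nuclei (final 0.05% Triton X-100, 1% formaldehyde, 1 ug/ml Hoechst), and nuclei were counted on 4× images. Relative viability is the nuclei count in treated wells divided by the count in vehicle wells, and each value is the median of duplicate plates.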

| Cell Line | relative viability |
| --- | --- |
| LC-2-ad | 0.403 |
| NCI-H1975 | 1.18 |
| RERF-LC-KJ | 1.01 |
| NCI-H650 | 0.627 |
| PC-3 [JPC-3] | 1.08 |

Same assay, conditions: first compound 0.006325 µM

| Cell Line | relative viability |
| --- | --- |
| PC-14 | 0.932 |
| EKVX | 0.879 |
| LC-2-ad | 0.477 |
| NCI-H1975 | 0.948 |
| RERF-LC-KJ | 0.86 |
| NCI-H650 | 0.747 |
| PC-3 [JPC-3] | 0.979 |

Same assay, conditions: first compound 0.02 µM

| Cell Line | relative viability |
| --- | --- |
| PC-14 | 0.953 |
| EKVX | 0.923 |
| LC-2-ad | 0.505 |
| NCI-H1975 | 0.7 |
| RERF-LC-KJ | 0.84 |
| NCI-H650 | 0.752 |
| PC-3 [JPC-3] | 0.916 |

Same assay, conditions: first compound 0.06325 µM

| Cell Line | relative viability |
| --- | --- |
| PC-14 | 0.603 |
| EKVX | 0.686 |
| LC-2-ad | 0.338 |
| NCI-H1975 | 0.358 |
| RERF-LC-KJ | 0.668 |
| NCI-H650 | 0.519 |
| PC-3 [JPC-3] | 0.874 |

Same assay, conditions: first compound 0.2 µM

| Cell Line | relative viability |
| --- | --- |
| PC-14 | 0.391 |
| EKVX | 0.341 |
| LC-2-ad | 0.4 |
| NCI-H1975 | 0.34 |
| RERF-LC-KJ | 0.582 |
| NCI-H650 | 0.393 |
| PC-3 [JPC-3] | 0.768 |

Each cell line was assayed with C1CCC(CC1)N(CCNCCC2=C3C(=C(C=C2)O)NC(=O)CO3)C(=O)CCNCCC4=CC(=C(C=C4)Cl)Cl [AZ505] + CC(C)C[C@H](NC(=O)[C@H](Cc1ccccc1)NC(=O)c1cnccn1)B(O)O [Bortezomib] (partner 0.002 µM) in the same assay as above. Details: first compound 0.08 µM.
In short: as §1

| Cell Line | relative viability |
| --- | --- |
| PC-14 | 0.776 |
| EKVX | 0.992 |
| LC-2-ad | 1 |
| NCI-H1975 | 0.333 |
| RERF-LC-KJ | 1.02 |
| NCI-H650 | 0.607 |
| PC-3 [JPC-3] | 0.735 |

Same assay, conditions: first compound 0.253 µM

| Cell Line | relative viability |
| --- | --- |
| PC-14 | 0.877 |
| EKVX | 0.906 |
| LC-2-ad | 1.04 |
| NCI-H1975 | 0.41 |
| RERF-LC-KJ | 1.02 |
| NCI-H650 | 0.793 |
| PC-3 [JPC-3] | 0.768 |

Same assay, conditions: first compound 0.8 µM

| Cell Line | relative viability |
| --- | --- |
| PC-14 | 0.882 |
| EKVX | 0.986 |
| LC-2-ad | 0.915 |
| NCI-H1975 | 0.335 |
| RERF-LC-KJ | 1.18 |
| NCI-H650 | 0.818 |
| PC-3 [JPC-3] | 0.684 |

Same assay, conditions: first compound 2.53 µM

| Cell Line | relative viability |
| --- | --- |
| PC-14 | 0.768 |
| EKVX | 1.09 |
| LC-2-ad | 1.01 |
| NCI-H1975 | 0.327 |
| RERF-LC-KJ | 1.09 |
| NCI-H650 | 1.02 |
| PC-3 [JPC-3] | 0.775 |

Same assay, conditions: first compound 8 µM

| Cell Line | relative viability |
| --- | --- |
| PC-14 | 0.841 |
| EKVX | 0.992 |
| LC-2-ad | 1.03 |
| NCI-H1975 | 0.356 |
| RERF-LC-KJ | 1.12 |
| NCI-H650 | 0.775 |
| PC-3 [JPC-3] | 0.771 |

— the supplement of paper PMC10307832
